Experimental findings from patent US10800789B2, “Antiviral compounds” (Gilead Pharmasset LLC, priority 2012, dated 2020) are described below.

For assay [1], the system named is stable HCV 1b RLuc replicon cells (dicistronic genotype 1b Con1 replicon). In words: Renilla luciferase HCV replicon reporter assay, genotype 1b. The assay is classed as cell-based. Particulars: Hepatitis C virus, 72 h, stable 1b Con1 RLuc replicon cells, 72 hours; read-out: 1b. The procedure, abridged: (§1)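 Cells carrying the stable or transiently transfected (Huh-Lunet) dicistronic RLuc replicons received 3-fold serial compound dilutions from 10 mM DMSO stocks. After 72 h, cells were lysed and Renilla luciferase read. DMSO served as the no-inhibition control and ITMN-191 above 100×EC50 as the positive control; EC50 by non-linear regression.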

The subject of assay [2] is stable HCV 1a RLuc replicon cells (dicistronic genotype 1a H77 replicon). In words: Renilla luciferase HCV replicon reporter assay, genotype 1a. Type of assay: cell-based. Particulars: Hepatitis C virus, 72 h, stable 1a H77 RLuc replicon cells. A digest of the protocol:
as §1

In assay [3] the test system is NS5A chimeric genotype 1b Con1 replicon with genotype 3a S52 strain NS5A gene. Put plainly: Replicon assay, genotype 3a NS5A chimera. The assay is classed as cell-based, HCV. Particulars: Hepatitis C virus.
In assay [4] the test system is NS5A chimeric genotype 2a JFH-1 replicon with genotype 2b MD2b-1 strain NS5A gene (M31 present). Put plainly: Replicon assay, genotype 2b NS5A chimera. The assay is classed as cell-based, HCV. Particulars: Hepatitis C virus. The procedure, abridged: as §1
(In general: Replicon systems follow genome replication, usually without infectious particles.)

Assay [5] concerns NS5A chimeric genotype 2a JFH-1 replicon with genotype 2a J6 strain NS5A gene (M31 present). In words: Replicon assay, genotype 2a J6 NS5A chimera. Type of assay: cell-based, HCV. Particulars: Hepatitis C virus. The procedure, abridged:
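Antiviral EC50 was determined in HCV replicon cells (stable RLuc lines for 1a H77, 1b Con1, 2a JFH-1 with NS5A L31; J6 NS5A chimera with M31) treated 72 h with compound. Renilla luciferase was then quantified.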

Assay [6] concerns NS5A chimeric genotype 1b Con1 replicon with genotype 4a ED43 strain NS5A gene. In words: Replicon assay, genotype 4a NS5A chimera. The assay is classed as cell-based, HCV. Conditions: Hepatitis C virus.
Assay [7] relates to stable HCV 2a JFH-1 Rluc replicon cells (L31 present in NS5A). In words: Renilla luciferase HCV replicon reporter assay, genotype 2a JFH-1. Type of assay: cell-based. Particulars: Hepatitis C virus. A digest of the protocol:
as §1

The mark [8] stands for this setting: read-out: 3a (s) (nM), genotype 3a NS5A chimeric replicon, stable replicon cells (s).
[9] abbreviates: read-out: 3a (s), (s), activity range.
[10] abbreviates: 2BS, read-out: 2b (s), stably replicating replicon cells (s), activity range.
[11] abbreviates: read-out: 2b (s) (nM), genotype 2b MD2b-1 NS5A chimeric replicon (M31), stably replicating replicon cells (s).
Where [12] appears, read: read-out: 2a J6 (t) (nM), genotype 2a J6 NS5A chimeric replicon (M31), transiently transfected (t) into Huh-Lunet cells.
The mark [13] stands for this setting: read-out: 2a J6 (t), transiently transfected (t) into Huh-Lunet cells, activity range.
The mark [14] stands for this setting: read-out: 4a (s) (nM), genotype 4a NS5A chimeric replicon, stable replicon cells (s).
Where [15] appears, read: read-out: 4a (s), (s), activity range.
Where [16] appears, read: read-out: 2a JFH (nM), genotype 2a JFH-1 replicon (L31 in NS5A), stable cells.
Where [17] appears, read: read-out: 2a JFH, stable 2a JFH-1 Rluc replicon cells, L31 in NS5A, activity range.

Like-named read-outs stand apart in the source and are kept apart here.

In the case of `COC(=O)N[C@H](C(=O)N1[C@@H](C)CC[C@H]1c1nc(C2CC2)c(-c2ccc3c(c2)COc2cc4c(ccc5nc([C@@H]6CC[C@H](C)N6C(=O)[C@@H](NC(=O)OC)[C@@H](C)OC)[nH]c54)cc2-3)[nH]1)[C@@H](C)OC` [GC, Methyl [(2S,3R)-1-{(2S,5S)-2-[9-(4-cyclopropyl-2-{(2S,5S)-1-[N-(methoxycarbonyl)-O-methyl-L-threonyl]-5-methylpyrrolidin-2-yl}-1H-imidazol-5-yl)-1,11-dihydroisochromeno[4′,3′:6,7]naphtho[1,2-d]imidazol-2-yl]-5-methylpyrrolidin-1-yl}-3-methoxy-1-oxobutan-2-yl]carbamate], the EC50 was 0.022 nM in assay [1]; 0.013 nM in assay [2]; less than 0.1 nM in assay [2] (activity range); 0.14 nM in assay [3] (setting [8]); 0.1 to 0.999 nM in assay [3] (setting [9]); 0.032 nM in assay [3] (read-out: 3a (t) (nM), genotype 3a NS5A chimeric replicon, transiently transfected (t)). Besides, the EC50 was less than 0.1 nM in assay [3] (read-out: 3a (t), transiently transfected (t) into Huh-Lunet cells, activity range); 0.1 to 0.999 nM in assay [4] (setting [10]); 0.117 nM in assay [4] (setting [11]); 0.181 nM in assay [5] (setting [12]); 0.1 to 0.999 nM in assay [5] (setting [13]); 0.013 nM in assay [6] (setting [14]). Moreover, the EC50 was less than 0.1 nM in assay [6] (setting [15]), 0.063 nM in assay [7] (setting [16]) and less than 0.1 nM in assay [7] (setting [17]).
Take `COC(=O)N[C@H](C(=O)N1[C@@H](C)CC[C@H]1c1ncc(-c2ccc3c(c2)COc2cc4c(ccc5nc([C@@H]6CC[C@H](C)N6C(=O)[C@@H](NC(=O)OC)[C@H](C)OC)[nH]c54)cc2-3)[nH]1)[C@H](C)OC` [GE]: the EC50 in assay [1] was 0.062 nM; in assay [2], 0.043 nM; in assay [2] (activity range), less than 0.1 nM; in assay [3] (setting [8]) it was 0.445 nM; in assay [3] (setting [9]), 0.1 to 0.999 nM; in assay [4] (setting [10]), 0.1 to 0.999 nM. In addition, the EC50 was 0.772 nM in assay [4] (setting [11]); 0.508 nM in assay [5] (setting [12]); 0.1 to 0.999 nM in assay [5] (setting [13]); 0.026 nM in assay [6] (setting [14]); less than 0.1 nM in assay [6] (setting [15]); 0.104 nM in assay [7] (setting [16]). Also, in assay [7] (setting [17]), the EC50 lay within 0.1 to 0.999 nM.
Consider `CC[C@H](C)[C@H](NC(=O)OC)C(=O)N1[C@@H](C)CC[C@H]1c1ncc(-c2ccc3c(c2)COc2cc4c(ccc5nc([C@@H]6CC[C@H](C)N6C(=O)[C@@H](NC(=O)OC)C(C)C)[nH]c54)cc2-3)[nH]1` [GL], for which the EC50 in assay [1] is 0.021 nM; in assay [2] it was 0.015 nM; in assay [2] (activity range), less than 0.1 nM; in assay [3] (setting [8]), 0.054 nM; in assay [3] (setting [9]) it was less than 0.1 nM; in assay [4] (setting [10]), 0.1 to 0.999 nM. The EC50 in assay [4] (setting [11]) was 0.577 nM; in assay [5] (setting [12]), 0.364 nM; in assay [5] (setting [13]) it was 0.1 to 0.999 nM; in assay [6] (setting [14]), 0.022 nM; in assay [6] (setting [15]), less than 0.1 nM; in assay [7] (setting [16]), 0.024 nM. Also, the EC50 in assay [7] (setting [17]) is less than 0.1 nM.
Consider `CC[C@H](C)[C@H](NC(=O)OC)C(=O)N1[C@@H](C)CC[C@H]1c1nc2ccc3cc4c(cc3c2[nH]1)OCc1cc(-c2cnc([C@@H]3CC[C@H](C)N3C(=O)[C@@H](NC(=O)OC)C(C)C)[nH]2)ccc1-4` [GM], for which the EC50 is 0.016 nM in assay [1]; 0.012 nM in assay [2]; less than 0.1 nM in assay [2] (activity range); 0.048 nM in assay [3] (setting [8]); less than 0.1 nM in assay [3] (setting [9]); 0.1 to 0.999 nM in assay [4] (setting [10]). The EC50 was 0.658 nM in assay [4] (setting [11]); 0.222 nM in assay [5] (setting [12]); 0.1 to 0.999 nM in assay [5] (setting [13]); 0.015 nM in assay [6] (setting [14]); less than 0.1 nM in assay [6] (setting [15]); 0.016 nM in assay [7] (setting [16]). Moreover, the EC50 in assay [7] (setting [17]) was less than 0.1 nM.
